Legend:
HeLa cells = test: Multiparameter fluorescence high information content analysis of cellular effects; type: cell-based; parameters: unit not given here; conditions: 24 h treatment; for Minimum detectable cellular change, Nuclear condensation: Hoechst 33342
Experimental: HeLa cells were plated on collagen-coated 384-well microtiter plates, allowed to attach, then treated for 24 h with test agents. Test agent concentrations began at 1 μM, and two-fold dilutions were made to levels below 1 nM. After the treatment period, the cells were fixed with formalin and their chromatin stained with Hoechst 33342. Cells were permeabilized and treated with primary antibodies for α-tubulin and phosphohistone H3, and then with fluorophore-labeled secondary antibodies. The three fluorescent channels were then examined on an ArrayScan II, which gives quantitative pixel distribution and density information in each channel on a per cell basis.
HeLa cells growing at log phase were trypsinized and plated in 40 μL at a density of 7,000-8,000 cells per well in calf skin collagen I-coated 384-well plates (Falcon #3962; Fisher Scientific). Cells were exposed to test agents or 0.5% DMSO within 2-8 h of plating. Concentrated DMSO stock solutions of all test agents were diluted into solutions of HBSS medium plus 10% FBS and added to the microplate wells (10 μL per well), using an automated liquid handling system (Biomek® 2000; Beckman-Coulter, Inc.) to provide a serial 2-fold dilution of each test agent. The cells were incubated in the presence of test agents for 24 h. At the end of the incubation, the medium was removed and replaced with HBSS containing 4% formaldehyde and 10 μg/mL Hoechst 33342 (25 μL/well) to fix the cells and fluorescently label their chromatin. After incubation at room temperature for 20-30 min, the solution was removed from each well and replaced with HBSS (100 μL/well). Further reagent additions were made to the microplates using the Biomek 2000. After removing the HBSS from each well, cells were permeabilized for 5 min at room temperature with 0.5% (w/w) Triton X-100 in HBSS (10 μL/well). This step extracts a fraction of the soluble cellular components, including soluble tubulin. The wells were washed with HBSS (100 μL/well), followed by addition of a primary antibody solution containing mouse anti-α-tubulin (1:3000) and rabbit anti-phosphohistone H3 (1:500) in HBSS (10 μL/well). After 1 h at room temperature, the wells were washed with HBSS as above, followed by the addition of a secondary antibody solution containing fluorescein-5-isothiocyanate (FITC)-labeled donkey anti-mouse (1:300) and Cy3-labeled donkey anti-rabbit (1:300) antibodies diluted in HBSS (10 μL/well). After 1 h at room temperature, the wells were washed as above, and HBSS was added (100 μL/well). The plates were placed in an ArrayScan® HCS Reader with the Target Activation BioApplication Software coupled to Cellomics® Store and the vHCS™ Discovery Toolbox (Cellomics, Inc.) to analyze images. Briefly, the instrument was used to scan multiple optical fields, each with multiparameter fluorescence, within a subset of the wells of the 384-well microplate. The BioApplication software produced multiple numerical feature values, such as subcellular object intensities, shapes, and location for each cell within an optical field. […] A nuclear mask was generated from Hoechst 33342-stained nuclei, and object identification thresholds and shape parameters were set such that the algorithm identified over 90% of the nuclei in each field. Objects that touched each other or the edge of the image were excluded from the analysis. Tubulin mass was defined as the average green (FITC) pixel intensity in an area defined by the Hoechst-defined nuclear mask. This cytoplasmic area around the nucleus contains cytoskeletal components is a region from which sensitive measurements of cytoplasmic characteristics can be made.

[1] = system: microtubules (tubulin polymer); test: Radiolabeled ligand binding assays; conditions: for potency relative to 1 in inhibiting the binding of radiolabeled paclitaxel to microtubules: relative to dictyostatin 1
Experimental: The abilities of test agents to inhibit the binding of radiolabeled forms of the microtubule stabilizers paclitaxel, discodermolide and epothilone B from tubulin polymer were determined.
[^3H]Paclitaxel, [^3H]discodermolide and [^14C]epothilone B solutions were prepared as 125 μM stock solutions in 50% DMSO. Radiolabeled compound (final concentration, 4.0 μM) and test agents at final concentrations noted in the text and tables were mixed in 50 μL of 4:1 (v/v) 0.75 M aqueous MSG/DMSO and warmed to 37° C. Meanwhile, a reaction mixture containing 0.75 M MSG, 2.5 μM tubulin, and 25 μM ddGTP was prepared and incubated at 37° C. for 30 min to form microtubuless. A 200 μL aliquot of the microtubule mixture was added to the drug mixtures, and incubation continued for 30 min at 37° C. Reaction mixtures were centrifuged in an Eppendorf 5417C centrifuge at 14,000 rpm for 20 min at room temperature. Radiolabel in the supernatants (100 μL) was determined by scintillation spectrometry.

[2] = system: purified bovine brain tubulin; test: Tubulin polymerization assay (turbidity); type: biochemical; conditions: tubulin 1 mg/mL ± MAPs ± GTP, agents at 10 and 40 μM, 0 to 30° C.
Experimental: The abilities of the new compounds to cause tubulin polymerization were determined under reaction conditions consisting of purified bovine brain tubulin (1 mg/mL) in the presence or absence of microtubule-associated proteins (MAPs, 0.75 mg/mL) and GTP (100 μM). Test agents were initially screened at 10 and 40 μM. In these experiments, test agent-induced assembly of soluble tubulin into polymer, with respect to the presence and absence of cofactors and at different temperatures, was monitored in a multi-cuvette, temperature-controlled spectrophotometer via development of turbidity in the solution. The initial temperature was closely controlled at 0° C., then rapidly raised to 10° C., to 20° C., then finally to 30° C. to determine both the temperature at which a test agent induced assembly as well as the extent of agent-induced assembly. The temperature increases were followed by a rapid decrease in temperature back to 0° C. to determine the cold-stability of polymer formed.
Tubulin assembly was monitored turbidimetrically in Gilford 250 spectrophotometers equipped with electronic temperature controllers as described previously (ter Haar et al., 1996). The reaction mixtures without the compounds consisted of tubulin (1 mg/ml), heat-treated MAPs (0.75 mg/ml, if present), GTP (100 μM, if present), and 0.1M (4-morpholinyl)ethane sulfonate (MeS). Baselines were established after addition of all reaction components except the compounds to the cuvettes held at 0° C. Compounds, at 10 μM or 40 μM final concentration, were then added and each reaction mixture (0.25 mL final volume) was subjected to the indicated temperature changes.

[3] = test agent 4 μM, radiolabel 4.0 μM, 37° C.

Row | SMILES | Minimum detectable cellular change, Phosphohistone H3 (HeLa cells) | Minimum detectable cellular change, Tubulin polymer intensity (HeLa cells) | Minimum detectable cellular change, Nuclear condensation (HeLa cells) | potency relative to 1 in inhibiting the binding of radiolabeled paclitaxel to microtubules [1] | Percent inhibition of radiolabel from microtubules, [3H]Paclitaxel [1, 3] | test agent-induced tubulin assembly, turbidity profile (in words) [2] | Percent inhibition of radiolabel from microtubules, [3H]Discodermolide [1, 3] | Percent inhibition of radiolabel from microtubules, [14C]Epothilone B [1, 3]
1 | C=C/C=C\[C@H](C)[C@H](O)[C@@H](C)[C@H](O)CC[C@H](C)C[C@H](C)[C@@H](O)[C@@H](C)/C=C\[C@@H](O)C[C@H](O)[C@H](C)/C=C/C=C\C(=O)OC [Compound 50, (2Z,4E,6R,7S,9S,10Z,12S,13R,14S,16S,19R,20S,21S,22S,23Z)-Methyl-7,9,13,19,21-penta-hydroxy-6,12,14,16,20,22-hexamethylhexacosa-2,4,10,23,25-pentaenoate] | 149 ± 23.6 (4) | 219 ± 36 (4) | 479 ± 182 (4) | ca. 60% | 42 ± 1 (3) % | caused tubulin assembly at temperatures lower than 30 °C | – | –
2 | C=CC=CC(C)C1OC(=O)C=CC=CC(C)C(O)CC(O)C=CC(C)C(O)C(C)CC(C)CCC(O)C1C [Compound 59, (8S,10S,14R,20S)-Tetrahydroxy-(7R,13S,15S,17S,21s)-pentamethyl-(22S)-((1S)-methylpenta-2,4-dienyl)-oxacyclodocosa-3,5,11-trien-2-one] | 261 ± 91 (4) | 284 ± 108 (4) | 363 ± 146 (2) | – | 7 ± 2 (3) % | caused tubulin assembly at temperatures lower than 30 °C | – | –
3 | C=CC=CC(C)C1OC(=O)C=CC=CC(C)C(O)CC(O)C=CC(C)C(O)C(C)CCCCC(O)C1C [Compound 79, (8S,10S,14R,20R)-Tetrahydroxy-(7R,13S,15S,21S)-tetramethyl-(22S)-((1S)-methylpenta-2,4-dienyl)-oxacyclodocosa-3,5,11-trien-2-one] | 34.4 ± 10.5 (4) | 26.9 ± 2.9 (4) | 71.5 ± 18.0 (4) | ca. 60% | 48 ± 3 (3) % | especially potent among the analogs | – | –
4 | C=C/C=C\[C@H](C)[C@@H]1OC(=O)/C=C\C=C\[C@@H](C)[C@@H](O)C[C@H](O)/C=C\[C@H](C)[C@H](O)[C@@H](C)C[C@@H](C)CC[C@@H](O)[C@@H]1C [dictyostatin-1, (8S,10S,14R,20R)-Tetrahydroxy-(7R,13S,15S,17S,21S)-pentamethyl-(22S)-((1S)-methylpenta-2,4-dienyl)oxacyclodocosa-3,5,11-trien-2-one, reference compound] | 9.6 ± 2.4 (4) | 7.4 ± 2.5 (4) | 32.7 ± 11.7 (3) | – | 75 ± 5 (3) % | far more potent than those of paclitaxel | 40 ± 3 (3) % | 88 ± 1 (3) %
5 | C=C/C=C\[C@H](C)[C@H](OC(N)=O)[C@@H](C)[C@H](O)[C@@H](C)C/C(C)=C\[C@H](C)[C@@H](O)[C@@H](C)/C=C\[C@@H](O)C[C@@H]1OC(=O)[C@H](C)[C@@H](O)[C@H]1C [discodermolide, reference compound] | 38.4 ± 21.9 (2) | 64.6 ± 0.0 (2) | 62.5 (1) | – | 76 ± 6 (4) % | far more potent than those of paclitaxel | – | 90 ± 1 (3) %

From US7321046B2, “Analogs of dictyostatin, intermediates therefor and methods of synthesis thereof” (University of Pittsburgh, priority 2002, dated 2008)
